Measurements from patent US5326774A, “Pharmaceutical preparation of antihypertensive, antianginal, antiarrhythmic and antiglaucomic action” (priority 1992, dated 1994).
Where two headings read alike, the source gives them in different places.

Tests used:
[1] = molecular target: T1, β1-adrenoceptor (Rattus norvegicus, UniProt P18090); test: Inhibition of isadrin's positive chronotropic effect, i.v., anesthetized rats; assay type: in vivo
T1 construct: positive chronotropic and depressor effects in the anesthetized rats; from tissue; host or cells: whole living rat (heart rate response to isadrin); endogenous receptor

[2] = molecular target: T2, β2-adrenoceptor (Rattus norvegicus, UniProt P10608); test: Inhibition of isadrin's depressor effect, i.v., anesthetized rats; assay type: in vivo
T2 construct: positive chronotropic and depressor effects in the anesthetized rats; from tissue; host or cells: whole living rat (blood pressure response to isadrin); endogenous receptor

[3] = tested on: heart rate; test: Heart rate in anesthetized rats, i.v.; assay type: in vivo, rat; details: for heart rate: control 271±7
Method: (§1) β-adrenoceptor blocking activity of the active principle of the pharmaceutical preparation of the invention was studied. […]. The test substances were injected to several groups of animals (6-10 individuals each) in the graded doses of 0.001, 0.0025, 0.01, 0.025, and 0.1 mg/kg.
(§2) From the dosage of […] it gave rise to the lowering of arterial pressure (from 159±9 in the control to 141±11, 127±10 and 123 ±11 mm Hg in the dosages of 0.01, 0.025 and 0.1 mg/kg). From the dosage of 0.0025 mg/kg the compound of the invention gave rise to the dose-related suppression of the isadrin-initiated depressor effect (by 12,63, 82 and 90% in doses of 0.0025, 0.01, 0.025 and 0.1 mg/kg) and, starting from the dosage of […], a positive chronotropic (by 25, 46 and 78% in doses of 0.01, 0.025 said 0.1 mg/kg, respectively) effect.

[4] = tested on: arterial pressure; test: Arterial pressure in anesthetized rats, i.v.; assay type: in vivo, rat; details: for arterial pressure: control 159±9
Method: as §1, §2

[5] = molecular target: T1, β1-adrenoceptor; test: Oral administration, isadrin-initiated positive chronotropism in rats; assay type: in vivo
Method: The effects of oral administration of the compound according to the invention as compared with the known drugs on the isadrin-initiated positive chronotropism in rats were tested.

[6] = tested on: β1-adrenoceptor; test: Isadrin's positive chronotropic effect, i.v., anesthetized cats; assay type: in vivo, cat
Description: (§3) The influence of intravenous injection of the compound according to the invention as compared with the known drugs on […] positive chronotropic and depressor effects in the anesthetized cats was studied.

[7] = tested on: β2-adrenoceptor; test: Isadrin's depressor effect, i.v., anesthetized cats; assay type: in vivo, cat
Description: as §3

[8] = tested on: β-adrenoceptor; test: Specificity of β-adrenoceptor blocking effect: positive inotropism
Description: Thus, the compound of the invention relates to specific β-adrenoceptor blocking agents.

[9] = tested on: mesaton-initiated pressor effect; test: Mesaton-initiated pressor effect in anesthetized rats; assay type: in vivo, rat
[10] = tested on: β-adrenoceptor; test: Partial agonistic activity and non-specific membrane-stabilizing effect
[11] = tested on: arterial pressure; test: Hypotensive activity in anesthetized cats, i.v.; assay type: in vivo, cat; details: for arterial pressure: control 163±8
[12] = tested on: arterial pressure; test: Arterial pressure and heart rate in conscious normotensive rats, oral; assay type: in vivo, rat; details: 10 and 50 mg/kg oral, 1 hour
[13] = tested on: arterial pressure; test: Antihypertensive effect in rats with renovascular hypertension; assay type: in vivo, rat
Method: . In rats suffering from renovascular hypertension the compound of the invention in the dosage of 10 mg/kg (injected intramuscularly) lowered with confidence the arterial pressure (from 137±3 to 117±5 mm of Hg column) 30 minutes after being administered. The 2-week course of the administration of the compound according to the invention (10 mg/kg 1 time a day) caused the antihypertensive effect to be enhanced. By the end of the second week the arterial pressure was 110±8.6 mm Hg. […]

[14] = tested on: ventricular fibrillation; test: Ventricular fibrillation during acute coronary occlusion and reperfusion in anesthetized dogs; assay type: in vivo, dog; details: single animals, hydrochloride
[15] = tested on: arterial pressure; test: Antihypertensive effect in rats with spontaneous hypertension; assay type: in vivo, rat
[16] = tested on: intraocular tension of intact rabbit eyes; details: for Average decrease of intraocular tension OD, M ± m / Intraocular tension level OD, M ± m: 1% solution
Method: The effects of the compound according to the invention on intraocular tension and hydrodynamics of the eye was tested in 28 chinchilla rabbits with body weight of 2.5-3.5 kg.
The left animal eyes were control wherein using the same procedure a diluent was instilled.

[17] = tested on: albino mice
Description: LD50 values were estimated by using the Litchfield-Wilckoxon method.

T1 sequence (P18090 whole entry): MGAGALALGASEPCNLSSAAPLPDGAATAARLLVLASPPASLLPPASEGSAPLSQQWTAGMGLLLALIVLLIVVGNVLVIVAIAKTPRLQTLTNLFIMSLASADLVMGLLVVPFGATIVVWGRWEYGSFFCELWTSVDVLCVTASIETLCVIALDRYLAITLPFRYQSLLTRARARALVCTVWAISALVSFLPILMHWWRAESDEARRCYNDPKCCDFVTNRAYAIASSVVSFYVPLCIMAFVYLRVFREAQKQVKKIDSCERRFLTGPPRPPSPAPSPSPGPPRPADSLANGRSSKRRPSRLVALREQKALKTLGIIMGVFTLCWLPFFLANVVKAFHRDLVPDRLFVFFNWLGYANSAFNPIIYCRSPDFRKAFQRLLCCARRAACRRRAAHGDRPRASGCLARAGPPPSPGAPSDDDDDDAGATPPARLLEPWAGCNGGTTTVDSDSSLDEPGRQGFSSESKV
T2 sequence (P10608 whole entry): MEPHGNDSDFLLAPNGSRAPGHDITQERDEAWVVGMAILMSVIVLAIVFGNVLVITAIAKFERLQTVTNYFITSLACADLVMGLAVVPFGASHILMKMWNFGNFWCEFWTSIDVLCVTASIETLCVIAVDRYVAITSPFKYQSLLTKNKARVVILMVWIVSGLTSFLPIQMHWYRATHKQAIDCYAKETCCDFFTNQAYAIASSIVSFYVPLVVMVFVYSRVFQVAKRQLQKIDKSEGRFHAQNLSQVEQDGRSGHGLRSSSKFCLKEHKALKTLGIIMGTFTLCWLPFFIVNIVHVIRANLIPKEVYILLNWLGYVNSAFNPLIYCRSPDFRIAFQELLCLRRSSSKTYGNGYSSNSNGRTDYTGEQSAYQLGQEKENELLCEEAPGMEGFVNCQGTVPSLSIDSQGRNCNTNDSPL

`Cc1noc(COc2ccccc2OCC(O)CNC(C)(C)C)n1.Cl` (centres unmarked) [Compound of the invention, 3-methyl-5-[2-(3-tert.butylamino-2-hydroxypropoxy)phenoxymethyl]-1,2,4-oxadiazole hydrochloride] was tested, and the “suppression of isadrin positive chronotropic effect” value ([1]; 0.01 mg/kg i.v.) was 25%, the “suppression of isadrin positive chronotropic effect” value ([1]; 0.025 mg/kg i.v.) was 46% and the “suppression of isadrin positive chronotropic effect” value ([1]; 0.1 mg/kg i.v.) was 78%. The “β1-adrenoceptor blocking activity compared with pindolol” value ([1]; comparison of ED50, rats i.v.) was “close to pindolol”, the “β1-adrenoceptor blocking activity, factor over labetalol” value ([1]; comparison of ED50, rats i.v.) was 23 and the “β1-adrenoceptor blocking activity, factor over oxprenolol” value ([1]; comparison of ED50, rats i.v.) was 9. The “β1-adrenoceptor blocking activity, factor over propranolol” value ([1]; comparison of ED50, rats i.v.) was 12, the “dosage from which isadrin positive chronotropic effect suppressed” value ([1]; i.v.) was 0.1 mg/kg and the ED50 ([1]; rat, iv, read-out: Dosage inhibiting isadrin's positive chronotropism by 50% (ED50)) was 0.03 ± 0.001 mg/kg. For the same compound, the “suppression of the isadrin-initiated depressor effect” value ([2]; 0.025 mg/kg i.v.) was 82%, the “suppression of the isadrin-initiated depressor effect” value ([2]; 0.1 mg/kg i.v.) was 90% and the “β2-adrenoceptor blocking activity, times as high as labetalol” value ([2]; comparison of ED50, rats i.v.) was 412 times. For the same compound, the “β2-adrenoceptor blocking activity, times as high as oxprenolol” value ([2]; comparison of ED50, rats i.v.) was 4 times, the “β2-adrenoceptor blocking activity, times as high as pindolol” value ([2]; comparison of ED50, rats i.v.) was 2 times and the “β2-adrenoceptor blocking activity, times as high as propranolol” value ([2]; comparison of ED50, rats i.v.) was 11 times. For the same compound, the “dosage from which isadrin depressor effect suppressed” value ([2]; i.v.) was 0.0025 mg/kg, the ED50 ([2]; rat, iv, read-out: Dosage inhibiting isadrin's depressor effect by 50%, ED50) was 0.008 ± 0.0007 mg/kg and the heart rate ([3]; 0.0025 mg/kg i.v.) was 249±11 beat/min. It also gave a heart rate ([3]; 0.01 mg/kg i.v.) of 238±16 beat/min, a heart rate ([3]; 0.025 mg/kg i.v.) of 204±14 beat/min and a heart rate ([3]; 0.1 mg/kg i.v.) of 181±14 beat/min. The minimal effective dose ([3]; Rattus norvegicus, iv, read-out: dosage from which heart rate decreased) was 0.0025 mg/kg, the arterial pressure ([4]; 0.01 mg/kg i.v.) was 141±11 mm Hg and the arterial pressure ([4]; 0.025 mg/kg i.v.) was 127±10 mm Hg. The arterial pressure ([4]; 0.1 mg/kg i.v.) was 123 ±11 mm Hg, the minimal effective dose ([4]; Rattus norvegicus, iv, read-out: dosage from which arterial pressure lowered) was 0.1 mg/kg and the “β1-adrenoceptor blocking activity compared with pindolol” value [5] was “inferior to pindolol”. The “β1-adrenoceptor blocking activity, superior to labetalol by” value [5] was 35 times, the “β1-adrenoceptor blocking activity, superior to propranolol by” value [5] was 14.8 times and the “β1-adrenoceptor blocking activity compared with pindolol” value [6] was “close to pindolol”. For the same compound, the “β1-adrenoceptor blocking activity, factor over labetalol” value [6] was 550, the “β1-adrenoceptor blocking activity, factor over oxprenolol” value [6] was 35 and the “β1-adrenoceptor blocking activity, factor over propranolol” value [6] was 3.5. The “β2-adrenoceptor blocking activity, times as high as labetalol” value [7] was 114 times, the “β2-adrenoceptor blocking activity, times as high as oxprenolol” value [7] was 43 times and the “β2-adrenoceptor blocking activity, times as high as propranolol” value [7] was 2 times. For the same compound, the “effect on positive inotropism of isadrin” value [8] was “completely arrested”, the “effect on positive inotropism of strophanthin, calcium chloride and theophylline” value [8] was “did not inhibit but even somewhat enhanced” and the “effect on mesaton pressor effect” value ([9]; 3 mg/kg i.v.) was “did not change”. For the same compound, the “suppression of mesaton pressor effect” value ([9]; 10 mg/kg i.v., average) was 76%, the non-specific membrane-stabilizing effect [10] was “has a non-specific membrane-stabilizing effect” and the partial agonistic activity [10] was “fails to exhibit a partial agonistic activity”. The arterial pressure ([11]; 0.02 mg/kg) was 147±12 mm Hg, the arterial pressure ([11]; 0.1 mg/kg) was 132±5 mm Hg and the arterial pressure ([11]; 0.3 mg/kg) was 96±7 mm Hg. The arterial pressure ([11]; 1.0 mg/kg) was 90±7 mm Hg, the arterial pressure ([11]; 5.0 mg/kg) was 67±7 mm Hg and the ED20 ([11]; Felis catus, iv, anesthetized cats, read-out: Dose resulting in lowering of arterial pressure by 20%, ED20) was 0.11 ± 0.01 mg/kg. For the same compound, the minimal effective dose ([11]; Felis catus, iv, cats, read-out: dosage from which arterial pressure lowered) was 0.02 mg/kg, the “hypotensive effect compared with labetalol” value ([11]; anesthetized normotensive cats, i.v.) was “stronger hypotensive effect as compared with labetalol” and the “hypotensive activity, times as high as labetalol” value ([11]; comparison of ED20) was 9 times. The “hypotensive activity and duration compared with labetalol” value ([11]; in vivo) was “superior to labetalol by hypotensive activity and duration of such effect”, the “duration of hypotensive effect” value ([11]; large dosages) was 3 to 4 h and the “duration of hypotensive effect” value ([11]; small dosages) was 0.083 to 0.5 h. The arterial pressure [12] was “arterial pressure lowering”, the heart rate [12] was “a decrease in heart rate” and the arterial pressure ([13]; 10 mg/kg 1 time a day, end of second week) was 110±8.6 mm Hg. For the same compound, the arterial pressure ([13]; 10 mg/kg i.m., 30 minutes, from 137±3) was 117±5 mm of Hg column, the “efficacy on long-time use” value ([13]; long time use) was “its efficacy is not becoming low (no drug addiction)” and the “Ventricular fibrillation during acute occlusion and reperfusion” value ([14]; 10 min after injection) was “R”. The “Ventricular fibrillation during acute occlusion and reperfusion” value ([14]; 60 min after injection) was “R”, the “hypotensive and antihypertensive properties” value [15] was “shows hypotensive and antihypertensive properties” and the “tolerability for rabbit eyes” value ([16]; 0.5, 1 and 2% solutions) was “well-tolerable”. The “Average decrease of intraocular tension OD, M ± m” value (“Average decrease” for short) ([16]; 1 hour) was 1.9 ± 0.3 ram of Hg column, the “Intraocular tension level OD, M ± m” value ([16]; 1 hour) was 17.1 ± 0.3 ram of Hg column and the “Average decrease” value ([16]; 2 hours) was 2.6 ± 0.2 ram of Hg column. The “Intraocular tension level OD, M ± m” value ([16]; 2 hours) was 16.5 ± 0.4 ram of Hg column, the “Average decrease” value ([16]; 3 hours) was 2.3 ± 0.3 ram of Hg column and the “Intraocular tension level OD, M ± m” value ([16]; 3 hours) was 17.1 ± 0.4 ram of Hg column. The “Average decrease” value ([16]; 4 hours) was 2.3 ± 0.3 ram of Hg column, the “Intraocular tension level OD, M ± m” value ([16]; 4 hours) was 17.1 ± 0.2 ram of Hg column and the “Average decrease” value ([16]; 5 hours) was 1.5 ± 0.5 ram of Hg column. For the same compound, the “Intraocular tension level OD, M ± m” value ([16]; 5 hours) was 17.6 ± 0.4 ram of Hg column, the “Average decrease” value ([16]; 6 hours) was 1.2 ± 0.4 ram of Hg column and the “Intraocular tension level OD, M ± m” value ([16]; 6 hours) was 17.8 ± 0.4 ram of Hg column. The “Average decrease” value ([16]; 24 hours) was 0.8 ± 0.5 ram of Hg column, the “Intraocular tension level OD, M ± m” value ([16]; 24 hours) was 18.2 ± 0.7 ram of Hg column and the “mechanism of lowering of intraocular tension” value ([16]; intact rabbit eyes) was “decrease in secretion of surface water (watery moisture)”. The “duration of lowering of intraocular tension” value ([16]; intact rabbit eyes, 0.5, 1 and 2% solutions) was 6 to 8 h, the irritating effect ([16]; rabbit, in vivo) was “no irritating effect” and the pupil value ([16]; rabbit, in vivo) was “do not change considerably the pupil value”. For the same compound, the “lower toxicity compared with propranolol, oxprenolol and pindolol” value ([17]; i.v.) was 2-4 times and the “lower toxicity than propranolol and oxprenolol” value ([17]; oral) was 2-3 times.
